Experiments:
in vitro = details: PAMPA
[1] = in vivo, po; cited from earlier work
[2] = pH 5, permeability class PAMPA-GIT

Compound	Papp (in vitro; [2])	Papp (in vitro; pH 5, Papp PAMPA-GIT, pH 5.0)	Papp (in vitro; pH 6.2, Papp PAMPA-GIT, pH 6.2)	Papp (in vitro; pH 7.4, Papp PAMPA-GIT, pH 7.4)	half-life [1]
Cc1cc(=O)n(-c2ccccc2)n1C [Antipyrine]	< 1 ×10⁻⁶ cm/s	–	–	–	–
NC(=O)N1c2ccccc2C=Cc2ccccc21 [Carbamazepine]	> 20 ×10⁻⁶ cm/s	135 ×10⁻⁶ cm/s	158 ×10⁻⁶ cm/s	160 ×10⁻⁶ cm/s	–
CC(C)(C)[C@H](NC(=O)C(F)(F)F)C(=O)N1C[C@H]2[C@@H]([C@H]1C(=O)N[C@H](C#N)C[C@@H]1CCNC1=O)C2(C)C [nirmatrelvir]	–	–	–	–	~ 2 h

From paper PMC9453727 (Cell Discovery, 2022)
